Read-outs that look alike come from different tables or passages of the source.
What was measured:
[1] = target: β-AbauCA (Acinetobacter baumannii β-CA, CanB) (Acinetobacter baumannii, UniProt A0A7U3Y636); assay: biochemical; assay type: biochemical
[2] = target: PgiCAβ (Porphyromonas gingivalis β-CA); parameters: method as in PMID 24146373; settings: cited from earlier work
[3] = CO2 hydrase, stopped-flow assay

Sequence of UniProt A0A7U3Y636 (A0A7U3Y636 1-204): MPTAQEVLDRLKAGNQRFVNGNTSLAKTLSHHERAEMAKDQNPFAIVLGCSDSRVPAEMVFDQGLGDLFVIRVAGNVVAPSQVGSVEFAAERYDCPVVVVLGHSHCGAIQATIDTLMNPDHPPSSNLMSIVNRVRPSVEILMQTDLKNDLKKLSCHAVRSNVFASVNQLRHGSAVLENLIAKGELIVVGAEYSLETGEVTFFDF

SMILES	affinity / Ki for β-AbauCA (in words) [1]	Ki ([1]; read-out: Ki β-AbauCA)	Ki [2, 3]	Ki [2]	Ki [1]
NS(N)(=O)=O [Anion H2NSO2NH2, sulfamide]	low millimolar affinity	2.1 mM	0.078 mM		
NS(=O)(=O)O [Anion H2NSO3H, sulphamic acid]	submillimolar	0.63 mM	0.06 mM		
OB1OB2OB(O)OB(O1)O2 [B4O7^2-, tetraborate]	low millimolar affinity	6.9 mM			
F[B-](F)(F)F [BF4^-, tetrafluoroborate]		> 100 mM	> 100 mM		
Br [Br^-]		> 100 mM	15.9 mM		
O=S(=O)(O)C(F)(F)F [CF3SO3^-, triflate]		> 100 mM	8.5 mM		
N#CO [CNO^-, cyanate]	submillimolar	0.79 mM		0.76 mM	
O=C(O)O [CO3^2-, carbonate]		> 100 mM		3.7 mM	
S=C(S)S [CS3^2-, trithiocarbonate]	low millimolar affinity	3.3 mM	4.3 mM		
[O-][Cl+3]([O-])([O-])O [ClO4^-, perchlorate]		> 100 mM		> 100 mM	
Cl [Cl^-]		> 100 mM	7.5 mM		
CCN(CC)C(=S)S [Et2NCS2^-, diethyldithiocarbamate]	low millimolar affinity		0.23 mM		8.2 mM
F [F^-]		> 100 mM	7.8 mM		
O=C(O)O [HCO3^-, bicarbonate]				7.3 mM	
O=S(O)O [HSO3^-, bisulphite]		59.1 mM	> 100 mM		
S [HS^-, hydrogensulfide]	submillimolar	0.4 mM		4.5 mM	
I [I^-]		> 100 mM	21.4 mM		
[N-]=[N+]=[N-] [N3^-, azide]		> 100 mM		> 100 mM	

SMILES	affinity / Ki for β-AbauCA (in words) [1]	Ki ([1]; read-out: Ki β-AbauCA)	Ki [2, 3]	Ki [2]	Ki [1]
O=S(=O)(O)NS(=O)(=O)O [NH(SO3)2^2-, iminodisulfonate]	submillimolar	0.93 mM	2.1 mM		
O=NO [NO2^-, nitrite]		31.1 mM		7.8 mM	
O=[N+]([O-])O [NO3^-, nitrate]		47.9 mM	> 100 mM		
O=P(O)(O)OP(=O)(O)O [P2O7^4-, pyrophosphate]		33.6 mM	8.2 mM		
F[P-](F)(F)(F)(F)F [PF6^-, hexafluorophosphate]			8.2 mM		
O=[As](O)(O)c1ccccc1 [Ph-AsO3H2, phenylarsonic acid]				0.076 mM	
OB(O)c1ccccc1 [Ph-B(OH)2, phenylboronic acid]	submillimolar			0.077 mM	0.29 mM
[O]=[Re](=[O])(=[O])[O-] [ReO4^-, perrhenate]	low millimolar affinity	8.1 mM			
[O]=[Ru](=[O])(=[O])=[O] [RuO4^-, perrhuthenate]	submillimolar	0.96 mM			
O=S(=O)(O)OOS(=O)(=O)O [S2O8^2-, peroxydisulfate]	low millimolar affinity	3.8 mM	9.2 mM		
N#CS [SCN^-, thiocyanate]	low millimolar affinity		1.9 mM		
O=S(=O)(O)O [SO4^2-, sulphate]		79.3 mM		> 100 mM	
N#C[SeH] [SeCN^-, selenocyanide]	submillimolar	0.71 mM		2.4 mM	
O=[Se](=O)(O)O [SeO4^2-, selenate]		18.4 mM		9.2 mM	
[O]=[Sn]([OH])[OH] [SnO3^2-, stannate]	low millimolar affinity	2.4 mM			
O=[Te](=O)(O)O [TeO4^2-, tellurate]		6 mM			
[O]=[V]([OH])([OH])[O][V](=[O])([OH])[OH] [V2O7^4-, divanadate]	low millimolar affinity	5.8 mM			

— paper PMC467105, “A comprehensive investigation of the anion inhibition profile of a β-carbonic anhydrase from Acinetobacter baumannii for crafting innovative antimicrobial treatments” (Journal of Enzyme Inhibition and Medicinal Chemistry, 2024)
